The text below walks through data of patent publication US10722501B2 (BAYER AKTIENGESELLSCHAFT, priority 2016, dated 2020).

Each structure is given as a SMILES string.

This experiment addresses T1, recombinant full-length human prolyl endopeptidase (PREP) (Homo sapiens, UniProt P48147).
T1 construct: To recombinant full-length human prolyl endopeptidase (PREP, R&D-Systems, 4308-SE); purchased R&D-Systems 4308-SE
T1 sequence (P48147 1-710): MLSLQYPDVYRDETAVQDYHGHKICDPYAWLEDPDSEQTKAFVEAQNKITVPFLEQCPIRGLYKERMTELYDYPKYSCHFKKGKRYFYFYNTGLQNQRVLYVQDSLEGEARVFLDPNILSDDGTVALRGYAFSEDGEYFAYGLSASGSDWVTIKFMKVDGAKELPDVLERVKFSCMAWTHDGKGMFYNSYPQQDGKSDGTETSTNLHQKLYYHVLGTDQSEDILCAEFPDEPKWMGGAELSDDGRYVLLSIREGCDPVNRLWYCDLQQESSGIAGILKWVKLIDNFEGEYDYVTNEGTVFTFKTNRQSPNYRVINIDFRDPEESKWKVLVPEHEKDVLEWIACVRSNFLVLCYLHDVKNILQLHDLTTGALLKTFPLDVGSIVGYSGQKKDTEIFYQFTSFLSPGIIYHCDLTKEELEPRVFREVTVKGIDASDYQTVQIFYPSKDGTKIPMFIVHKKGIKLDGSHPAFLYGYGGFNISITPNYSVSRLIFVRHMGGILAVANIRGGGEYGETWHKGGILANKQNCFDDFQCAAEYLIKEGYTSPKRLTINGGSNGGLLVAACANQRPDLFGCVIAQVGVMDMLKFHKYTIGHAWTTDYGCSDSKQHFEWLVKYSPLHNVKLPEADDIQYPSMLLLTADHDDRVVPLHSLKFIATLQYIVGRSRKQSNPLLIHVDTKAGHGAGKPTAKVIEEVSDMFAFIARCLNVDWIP
The experiment can be described thus: Biochemical human prolyl endopeptidase (PREP) assay with fluorescently labelled substrate. The settings on record: substrate Z-Gly-Pro-AMC 50 μM, 32° C., 60 min; some as mean values from multiple independent determinations. The method in brief: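 Initial rates of fluorescence increase from 50 μM Z-Gly-Pro-AMC cleavage (ex 360/em 465 nm, 60 min, 32° C) give percent PREP activity versus no-compound control, and IC50 is interpolated. Enzyme used at 0.4 nM (final, example) in Tris pH 7.5 with EDTA, GSH, BSA and Brij-35; compounds span 1 nM to 30 μM.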
By IC50 is commonly meant the midpoint of a concentration-inhibition curve. For the compound `O=C(C1CC(C(F)(F)F)Cc2nn(Cc3ccc(Cl)nc3)c(=O)n21)N1C[C@@H](F)[C@@H](F)C1` (single isomer, unassigned) [Example 250], the IC50 stood at 0.92 nM.
In the case of `O=C(C1CC(C(F)(F)F)Cc2nn(Cc3ccnc(C(F)(F)F)c3F)c(=O)n21)N1CCC(F)(F)C1` (single isomer, unassigned) [Example 252, (5RS,7RS)-5-[(3,3-Difluoropyrrolidin-1-yl)carbonyl]-2-{[3-fluoro-2-(trifluoromethyl)pyridin-4-yl]methyl}-7-(trifluoromethyl)-5,6,7,8-tetrahydro[1,2,4]triazolo[4,3-a]pyridin-3(2H)-one] it was 3.1 nM; in that of `O=C(C1CC(C(F)(F)F)Cc2nn(Cc3ccnc(C(F)(F)F)c3F)c(=O)n21)N1CC(F)C1` (single isomer, unassigned) [Example 253, (5RS,7RS)-5-[(3-Fluoroazetidin-1-yl)carbonyl]-2-{[3-fluoro-2-(trifluoromethyl)pyridin-4-yl]methyl}-7-(trifluoromethyl)-5,6,7,8-tetrahydro[1,2,4]triazolo[4,3-a]pyridin-3(2H)-one], 120 nM; in that of `O=C(C1CC(C(F)(F)F)Cc2nn(Cc3ccnc(C(F)(F)F)c3F)c(=O)n21)N1CC(F)C1` (single isomer, unassigned) [Example 254, (5RS,7RS)-5-[(3-Fluoroazetidin-1-yl)carbonyl]-2-{[3-fluoro-2-(trifluoromethyl)pyridin-4-yl]methyl}-7-(trifluoromethyl)-5,6,7,8-tetrahydro[1,2,4]triazolo[4,3-a]pyridin-3(2H)-one], 30.5 nM.
As to `O=C(C1CC(C(F)(F)F)Cc2nn(Cc3ccnc(C(F)(F)F)c3F)c(=O)n21)N1CC(F)C1` (single isomer, unassigned) [Example 255, (5RS,7RS)-5-[(3-Fluoroazetidin-1-yl)carbonyl]-2-{[3-fluoro-2-(trifluoromethyl)pyridin-4-yl]methyl}-7-(trifluoromethyl)-5,6,7,8-tetrahydro[1,2,4]triazolo[4,3-a]pyridin-3(2H)-one], the IC50 stood at 15.1 nM.
As to `O=C(C1CC(C(F)(F)F)Cc2nn(Cc3ccnc(C(F)(F)F)c3F)c(=O)n21)N1CC[C@H](F)C1` (single isomer, unassigned) [Example 257], the IC50 was 0.595 nM.
In the case of `O=C(C1CC(C(F)(F)F)Cc2nn(Cc3ccnc(C(F)(F)F)c3F)c(=O)n21)N1CC[C@H](F)C1` (single isomer, unassigned) [Example 258] it was 91.5 nM.
Then `O=C(C1CC(C(F)(F)F)Cc2nn(Cc3ccnc(C(F)(F)F)c3F)c(=O)n21)N1C[C@@H](F)[C@@H](F)C1` (single isomer, unassigned) [Example 259], with 17 nM.
In the case of `O=C(C1CC(C(F)(F)F)Cc2nn(Cc3ccnc(C(F)(F)F)c3F)c(=O)n21)N1C[C@@H](F)[C@@H](F)C1` (single isomer, unassigned) [Example 260] it was 2.6 nM.
Take `O=C(C1CC(C(F)(F)F)Cc2nn(Cc3ccnc(C(F)(F)F)c3F)c(=O)n21)N1C[C@@H](F)[C@@H](F)C1` (single isomer, unassigned) [Example 261]: the IC50 was 1 nM.
In the case of `O=C(C1CC(C(F)(F)F)Cc2nn(Cc3ccnc(C(F)(F)F)c3F)c(=O)n21)N1C[C@@H](F)[C@@H](F)C1` (single isomer, unassigned) [Example 262] it was 790 nM; in that of `O=C(C1CC(C(F)(F)F)Cc2nn(Cc3ncc(Cl)cc3F)c(=O)n21)N1CC[C@H](F)C1` (single isomer, unassigned) [Example 265], 1.3 nM.
Then `O=C(C1CC(C(F)(F)F)Cc2nn(Cc3ncc(Cl)cc3F)c(=O)n21)N1C[C@@H](F)[C@@H](F)C1` (single isomer, unassigned) [Example 267], with 2.3 nM; and `O=C(C1CC(C(F)(F)F)Cc2nn(Cc3cncc(Cl)c3)c(=O)n21)N1C[C@@H](F)[C@@H](F)C1` (single isomer, unassigned) [Example 268], with 23 nM.
